Laboratory results taken from paper PMC2075610 (Biochimica et Biophysica Acta. Molecular Basis of Disease, 2006).
Non-standard residues stand in square brackets, D forms with d. Residues, ends and D or L forms follow the SMILES beside them. *: point of attachment. Nle = CCCC[C@H](N)C(=O)O; For = O=C*

B1: Formyl peptide receptor (FPR R190/K192), P21462 (protein)
chain: METNSSLPTNISGGTPAVSAGYLFLDIITYLVFAVTFVLGVLGNGLVIWVAGFRMTHTVTTISYLNLAVADFCFTSTLPFFMVRKAMGGHWPFGWFLCKFVFTIVDINLFGSVFLIALIALDRCVCVLHPVWTQNHRTVSLAKKVIIGPWVMALLLTLPVIIRVTTVPGKTGTVACTFNFSPWTNDPKERIKVAVAMLTVRGIIRFIIGFSAPMSIVAVSYGLIATKIHKQGLIKSSRPLRVLSFVAAAFFLCWSPYQVVALIATVRIRELLQGMYKEIGIAVDVTSALAFFNSCLNPMLYVFMGQDFRERLIHALPASLERALTEDSTQTSDTATNSTLPSAEVELQAK
B2: Formyl peptide receptor (FPR W190/N192), P21462 (protein)
chain: METNSSLPTNISGGTPAVSAGYLFLDIITYLVFAVTFVLGVLGNGLVIWVAGFRMTHTVTTISYLNLAVADFCFTSTLPFFMVRKAMGGHWPFGWFLCKFVFTIVDINLFGSVFLIALIALDRCVCVLHPVWTQNHRTVSLAKKVIIGPWVMALLLTLPVIIRVTTVPGKTGTVACTFNFSPWTNDPKEWINVAVAMLTVRGIIRFIIGFSAPMSIVAVSYGLIATKIHKQGLIKSSRPLRVLSFVAAAFFLCWSPYQVVALIATVRIRELLQGMYKEIGIAVDVTSALAFFNSCLNPMLYVFMGQDFRERLIHALPASLERALTEDSTQTSDTATNSTLPSAEVELQAK

Legend:
R190/N192 FPR [1] = target: T1, R190/N192 FPR (Homo sapiens, UniProt P21462); test: biochemical; format: binding
R190/K192 FPR [2] = target: T2, R190/K192 FPR (Homo sapiens, UniProt P21462, N192K); test: biochemical; format: binding
W190/N192 FPR [3] = target: T3, W190/N192 FPR (Homo sapiens, UniProt P21462, R190W); test: biochemical; format: binding; conditions: for Ki: Ki (nM ± SEM) for binding of peptides to W190/N192 FPR
R190/N192 FPR [4] = target: T1, R190/N192 FPR; test: biochemical; format: biochemical
R190/K192 FPR [5] = target: T2, R190/K192 FPR; test: biochemical; format: biochemical
W190/N192 FPR [6] = target: T3, W190/N192 FPR; test: biochemical; format: biochemical
R190/N192 FPR [7] = target: T1, R190/N192 FPR; format: cell-based
R190/K192 FPR [8] = target: T2, R190/K192 FPR; format: cell-based
W190/N192 FPR [9] = target: T3, W190/N192 FPR; format: cell-based
R190/N192 FPR [10] = target: T1, R190/N192 FPR; format: cell-based; remark: listed apart in the source
R190/K192 FPR [11] = target: T2, R190/K192 FPR; format: cell-based; remark: listed apart in the source
W190/N192 FPR [12] = target: T3, W190/N192 FPR; format: cell-based; remark: listed apart in the source
MMWLL = test: flow
reverse 229E peptide = test: flow

T1 sequence (P21462 whole entry, looked up): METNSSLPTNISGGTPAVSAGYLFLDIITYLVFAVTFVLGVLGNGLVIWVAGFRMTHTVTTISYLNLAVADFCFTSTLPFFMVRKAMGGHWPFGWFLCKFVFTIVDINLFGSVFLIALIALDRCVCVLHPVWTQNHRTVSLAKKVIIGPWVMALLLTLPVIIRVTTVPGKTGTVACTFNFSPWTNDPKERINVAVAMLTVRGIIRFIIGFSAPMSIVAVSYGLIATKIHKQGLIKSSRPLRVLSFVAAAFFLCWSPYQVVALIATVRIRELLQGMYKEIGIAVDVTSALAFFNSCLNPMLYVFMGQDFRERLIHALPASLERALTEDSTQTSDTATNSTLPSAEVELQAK

Row | Molecule | Ki (R190/N192 FPR [1]) [nM] | Ki (R190/K192 FPR [2]) [nM] | Ki (W190/N192 FPR [3]) [nM] | stimulation of GTPγS binding (R190/N192 FPR [4]) | stimulation of GTPγS binding (R190/K192 FPR [5]) | stimulation of GTPγS binding (W190/N192 FPR [6]) | further results
1 | CSCC[C@H](NC=O)C(=O)N[C@@H](Cc1ccc(O)cc1)C(=O)N[C@H](C(=O)N[C@@H](CCCCN)C(=O)N[C@@H](Cc1c[nH]c2ccccc12)C(=O)N1CCC[C@H]1C(=O)N[C@@H](Cc1c[nH]c2ccccc12)C(=O)N[C@@H](Cc1ccc(O)cc1)C(=O)N[C@H](C(=O)N[C@@H](Cc1c[nH]c2ccccc12)C(=O)N[C@@H](CC(C)C)C(=O)O)C(C)C)C(C)C (For-MYVKWPWYVWL-OH) | 134 ± 9 | 134 ± 12 | 133 ± 8 | stimulated GTPγS binding | stimulated GTPγS binding | stimulated GTPγS binding | 
2 | CSCC[C@H](N)C(=O)N[C@@H](Cc1ccc(O)cc1)C(=O)N[C@H](C(=O)N[C@@H](CCCCN)C(=O)N[C@@H](Cc1c[nH]c2ccccc12)C(=O)N1CCC[C@H]1C(=O)N[C@@H](Cc1c[nH]c2ccccc12)C(=O)N[C@@H](Cc1ccc(O)cc1)C(=O)N[C@H](C(=O)N[C@@H](Cc1c[nH]c2ccccc12)C(=O)N[C@@H](CC(C)C)C(=O)O)C(C)C)C(C)C (H-MYVKWPWYVWL-OH) | 783 ± 50 | 837 ± 32 | 263 ± 9 | neither ETYIKWPWWVWL nor MYVKWPWYVWL had any effect | neither ETYIKWPWWVWL nor MYVKWPWYVWL had any effect | neither ETYIKWPWWVWL nor MYVKWPWYVWL had any effect | fold enhancement of affinity on formylation (R190/N192 FPR [1]): 6 fold; fold enhancement of affinity on formylation (R190/K192 FPR [2]): 6 fold; fold enhancement of affinity on formylation (W190/N192 FPR [3]): 2 fold; fold higher affinity for W190/N192 than for R190/N192 or R190/K192 (W190/N192 FPR [3]): 3 fold; inhibition of 300 nM formyl-MYVKWPWYVWL stimulation of GTPγS binding (R190/N192 FPR [4]): did not have a significant effect; inhibition of 300 nM formyl-MYVKWPWYVWL stimulation of GTPγS binding (R190/K192 FPR [5]): did not have a significant effect; inhibition of 300 nM formyl-MYVKWPWYVWL stimulation of GTPγS binding (W190/N192 FPR [6]): 60%
3 | CC[C@H](C)[C@H](NC(=O)[C@H](Cc1ccc(O)cc1)NC(=O)[C@@H](NC(=O)[C@@H](N)CCC(=O)O)[C@@H](C)O)C(=O)N[C@@H](CCCCN)C(=O)N[C@@H](Cc1c[nH]c2ccccc12)C(=O)N1CCC[C@H]1C(=O)O [ETYIKWP] (H-ETYIKWP-OH) | > 260000 | > 260000 | > 260000 |  |  |  | EC50 for inhibition of stimulation of GTPγS binding by formyl-Nle–Leu–Phe (W190/N192 FPR [6]): had no effect
4 | CCCC[C@H](NC=O)C(=O)N[C@@H](CC(C)C)C(=O)N[C@@H](Cc1ccccc1)C(=O)O [Formyl-NleLeuPhe, Formyl-Nle–Leu–Phe, reference compound] (For-[Nle]-Leu-Phe-OH) |  |  |  | stimulated GTPγS binding | stimulated GTPγS binding | stimulated GTPγS binding | fold higher affinity for R190/K192 than for W190/N192 (R190/K192 FPR [2]): ~3 fold; fold reduction of affinity on substitution of R190 with W190 (W190/N192 FPR [3]): 2.5 fold; β-arrestin translocation (R190/N192 FPR [7]): caused β-arrestin translocation; β-arrestin translocation (R190/K192 FPR [8]): caused β-arrestin translocation; β-arrestin translocation (W190/N192 FPR [9]): caused β-arrestin translocation; surface receptor downregulation (R190/N192 FPR [10]): 76 ± 1.2%; surface receptor downregulation (R190/K192 FPR [11]): 85 ± 0.4%; surface receptor downregulation (W190/N192 FPR [12]): 76 ± 3%
5 | CC[C@H](C)[C@H](NC(=O)[C@H](CC(N)=O)NC(=O)[C@H](C)NC(=O)[C@H](CCC(=O)O)NC(=O)[C@H](CC(C)C)NC(=O)[C@@H](N)Cc1ccc(O)cc1)C(=O)N[C@@H](CO)C(=O)N[C@@H](CCC(=O)O)C(=O)N[C@@H](CC(C)C)C(=O)N[C@@H](CC(C)C)C(=O)N[C@@H](CCC(=O)O)C(=O)N[C@@H](CCC(N)=O)C(=O)N[C@@H](C)C(=O)N[C@@H](CCC(N)=O)C(=O)N[C@H](C(=O)N[C@@H](CCC(N)=O)C(=O)N[C@@H](CCC(N)=O)C(=O)N[C@@H](CCC(=O)O)C(=O)N[C@@H](CCCCN)C(=O)N[C@@H](CC(N)=O)C(=O)N[C@@H](CCSC)C(=O)N[C@@H](Cc1ccc(O)cc1)C(=O)N[C@@H](CCC(=O)O)C(=O)N[C@@H](CC(C)C)C(=O)N[C@@H](CCC(N)=O)C(=O)N[C@@H](CCCCN)C(=O)N[C@@H](CC(C)C)C(=O)N[C@@H](CC(N)=O)C(=O)N[C@@H](CO)C(=O)N[C@@H](Cc1c[nH]c2ccccc12)C(=O)N[C@@H](CC(=O)O)C(=O)N[C@H](C(=O)N[C@@H](Cc1ccccc1)C(=O)NCC(=O)N[C@@H](CC(N)=O)C(=O)N[C@@H](Cc1c[nH]c2ccccc12)C(=O)N[C@@H](Cc1ccccc1)C(=O)O)C(C)C)[C@@H](C)CC [HIV-2 37 mer] | 15700 | 10000 | 4000 ± 1000 |  |  |  | 
6 | CSCC[C@H](NC(=O)[C@@H](N)CCSC)C(=O)N[C@@H](Cc1c[nH]c2ccccc12)C(=O)N[C@@H](CC(C)C)C(=O)N[C@@H](CC(C)C)C(=O)O [MMWLL, reference compound] (H-MMWLL-OH) | 330 ± 50 | 190 ± 30 | 840 ± 200 |  |  |  | fold higher affinity for R190/K192 than for W190/N192 (R190/K192 FPR [2]): ~3 fold
7 | CC(C)C[C@H](NC(=O)[C@H](Cc1c[nH]c2ccccc12)NC(=O)[C@@H](NC(=O)[C@H](Cc1c[nH]c2ccccc12)NC(=O)[C@H](Cc1c[nH]c2ccccc12)NC(=O)[C@@H]1CCCN1C(=O)[C@@H](N)Cc1c[nH]c2ccccc12)C(C)C)C(=O)O [WPWWVWL] (H-WPWWVWL-OH) | ~600 | ~600 | ~600 |  |  |  | 
8 | CC(C)C[C@H](NC(=O)[C@H](Cc1c[nH]c2ccccc12)NC(=O)[C@@H](NC(=O)[C@H](Cc1c[nH]c2ccccc12)NC(=O)[C@@H](N)Cc1c[nH]c2ccccc12)C(C)C)C(=O)O [WWVWL] (H-WWVWL-OH) | ~1000 | ~1400 | ~600 |  |  |  | EC50 (W190/N192 FPR [6]): 1300 nM
9 | B1 |  |  |  |  |  |  | Ki (MMWLL): 190 nM; Ki (reverse 229E peptide): > 50000 nM
10 | B2 |  |  |  |  |  |  | Ki (MMWLL): 840 nM; Ki (reverse 229E peptide): > 50000 nM
